Here are results for two molecules from the NIST ThermoML archive (doi:10.1021/je7003337).

± gives the expanded uncertainty stated by the source.

This data set in a line: refractive index (Na D-line) (dimensionless). To be noted: 298.15 K; 101.33 kPa; Liquid; Standard Abbe refractometry.

As a reminder, the refractive index is the speed of light in vacuum divided by its phase velocity in the sample. `CCCCCC` [hexane]: the refractive index worked out at 1.37226 ± 0.00072. Under `Cc1ccc(C)cc1` [1,4-dimethylbenzene] stands 1.49321 ± 0.00072.
